Values quoted from earlier work as cited in US20220160670A1, “COMPOSITION COMPRISING L-CARNITINE FOR THE TREATMENT OF MALE INFERTILITY” (LABORATOIRE DES GRANIONS, priority 2017, published 2022).

What was measured:
[1] = system: total forward motility of spermatozoa; details: treatment of 6 months; 3 g/day L-carnitine, 3 g/day L-acetylcarnitine, or 2 g/day + 1 g/day combined
[2] = system: number and total forward motility of spermatozoa; details: 2 g/day for 2*2 months; patients with 10 to 20 million/ml and total mobility 10% to 30% at inclusion

| Compound | effect on total forward motility of spermatozoa [1] | effect on number of spermatozoa [2] | effect on total forward motility of spermatozoa [2] |
| --- | --- | --- | --- |
| CC(=O)O[C@H](CC(=O)[O-])C[N+](C)(C)C [L-acetylcarnitine] | significantly increases |  |  |
| C[N+](C)(C)C[C@H](O)CC(=O)[O-] [L-carnitine] | significantly increases | increase | increase |
